Results as given in US20210127673A1, “HERBICIDES” (SYNGENTA PARTICIPATIONS AG, priority 2016, published 2021).

What was measured:
Assay type in all cases: in vivo
Details in all cases: 1000 g/ha, evaluated after 13 days
[1] = system: Echinochloa crus-galli (ECHCG); assay: Post-emergence herbicidal activity, Echinochloa crus-galli; parameters: key: 5=total damage to plant; 0=no damage to plant
Procedure: (§1) Seeds of a variety of test species were sown in standard soil in pots: Triticum aestivium (TRZAW), Avena fatua (AVEFA), Alopecurus myosuroides (ALOMY), Echinochloa crus-galli (ECHCG), Lolium perenne (LOLPE), Zea Mays (ZEAMX), Abutilon theophrasti (ABUTH), Amaranthus retroflexus (AMARE) and Setaria faberi (SETFA). After 8 days cultivation (post-emergence) under controlled conditions in a glasshouse (at 24/16° C., day/night; 14 hours light; 65% humidity), the plants were sprayed with an aqueous spray solution derived from the formulation of the technical active ingredient in acetone/water (50:50) solution containing 0.5% Tween 20 (polyoxyethelyene sorbitan monolaurate, CAS RN 9005-64-5). The test plants were then grown in a glasshouse under controlled conditions (at 24/16° C., day/night; 14 hours light; 65% humidity) and watered twice daily. After 13 days, the test was evaluated (5=total damage to plant; 0=no damage to plant).

Setaria faberi (SETFA) [2] = assay: Post-emergence herbicidal activity, Setaria faberi; parameters: key: 5=total damage to plant; 0=no damage to plant
Procedure: as §1

Lolium perenne (LOLPE) [3] = assay: Post-emergence herbicidal activity, Lolium perenne
Procedure: as §1

[4] = system: Echinochloa crus-galli (ECHCG); assay: Pre-emergence herbicidal activity, Echinochloa crus-galli; parameters: key: 5=total damage to plant; 0=no damage to plant
Procedure: (§2) Seeds of a variety of test species were sown in standard soil in pots: Triticum aestivium (TRZAW), Avena fatua (AVEFA), Alopecurus myosuroides (ALOMY), Echinochloa crus-galli (ECHCG), Lolium perenne (LOLPE), Zea Mays (ZEAMX), Abutilon theophrasti (ABUTH), Amaranthus retroflexus (AMARE) and Setaria faberi (SETFA). After cultivation for one day (pre-emergence) under controlled conditions in a glasshouse (at 24/16° C., day/night; 14 hours light; 65% humidity), the plants were sprayed with an aqueous spray solution derived from the formulation of the technical active ingredient in acetone/water (50:50) solution containing 0.5% Tween 20 (polyoxyethelyene sorbitan monolaurate, CAS RN 9005-64-5). The test plants were then grown in a glasshouse under controlled conditions (at 24/16°, day/night; 14 hours light; 65% humidity) and watered twice daily. After 13 days, the test was evaluated (5=total damage to plant; 0=no damage to plant).

[5] = system: Alopecurus myosuroides (ALOMY); assay: Pre-emergence herbicidal activity, Alopecurus myosuroides; parameters: key: 5=total damage to plant; 0=no damage to plant
Procedure: as §2

[6] = system: Alopecurus myosuroides (ALOMY); assay: Post-emergence herbicidal activity, Alopecurus myosuroides; parameters: key: 5=total damage to plant; 0=no damage to plant
Procedure: as §1

Lolium perenne (LOLPE) [7] = assay: Pre-emergence herbicidal activity, Lolium perenne; parameters: key: 5=total damage to plant; 0=no damage to plant
Procedure: as §2

Avena fatua (AVEFA) [8] = assay: Post-emergence herbicidal activity, Avena fatua
Procedure: as §1

[9] = system: Triticum aestivium (TRZAW); assay: Post-emergence herbicidal activity, Triticum aestivium; parameters: key: 5=total damage to plant; 0=no damage to plant
Procedure: as §1

[10] = system: Triticum aestivium (TRZAW); assay: Pre-emergence herbicidal activity, Triticum aestivium; parameters: key: 5=total damage to plant; 0=no damage to plant
Procedure: as §2

Avena fatua (AVEFA) [11] = assay: Pre-emergence herbicidal activity, Avena fatua; parameters: key: 5=total damage to plant; 0=no damage to plant
Procedure: as §2

Setaria faberi (SETFA) [12] = assay: Pre-emergence herbicidal activity, Setaria faberi; parameters: key: 5=total damage to plant; 0=no damage to plant
Procedure: as §2

Row | Compound | Control of ECHCG after post-emergence application (score 0-5) [1] | Control of SETFA after post-emergence application (score 0-5) (Setaria faberi (SETFA) [2]) | Control of LOLPE after post-emergence application (score 0-5) (Lolium perenne (LOLPE) [3]) | Control of ECHCG after pre-emergence application (score 0-5) [4] | Control of ALOMY after pre-emergence application (score 0-5) [5] | Control of ALOMY after post-emergence application (score 0-5) [6] | Control of LOLPE after pre-emergence application (score 0-5) (Lolium perenne (LOLPE) [7]) | Control of AVEFA after post-emergence application (score 0-5) (Avena fatua (AVEFA) [8]) | Control of TRAZW after post-emergence application (score 0-5) [9] | Control of TRAZW after pre-emergence application (score 0-5) [10] | Control of AVEFA after pre-emergence application (score 0-5) (Avena fatua (AVEFA) [11]) | Control of SETFA after pre-emergence application (score 0-5) (Setaria faberi (SETFA) [12])
1 | CC(C)(C)OC(=O)Nc1ccc(-c2cncc(C#N)c2)nc1C(F)(F)F [Compound B7] | 4 | 5 | 2 | 2 | 0 | 1 | 1 | 4 | 1 | 0 | 1 | 5
2 | C=CCN(C(=O)OC(C)(C)C)c1ccc(-c2cncc(F)c2)nc1C(F)(F)F [Compound B9] | 5 | 5 | 4 | 3 | 1 | 1 | 2 | 3 | 1 | 0 | 2 | 5
3 | CC(C)(C)OC(=O)N(CC1CC1)c1ccc(-c2cncc(F)c2)nc1C(F)(F)F [Compound B10] | 4 | 5 | 3 | 3 | 1 | 1 | 1 | 3 | 1 | 0 | 2 | 5
4 | COC(=O)CN(C(=O)OC(C)(C)C)c1ccc(-c2cncc(F)c2)nc1C(F)(F)F [Compound B11] | 2 | 3 | 1 | 0 | 0 | 0 | 0 | 1 | 0 | 0 | 0 | 1
5 | CSc1cncc(-c2ccc(NC(=O)OC(C)(C)C)c(C)n2)c1 [Compound B12] | 2 | 3 | 2 | 1 | 1 | 1 | 1 | 2 | 1 | 0 | 1 | 3
